{"source": "patent US20100113478A1", "about": "“INDOLONE MODULATORS OF 5-HT3 RECEPTOR” (AUSPEX PHARMACEUTICALS, INC., priority 2008, published 2010)", "origin": "cited, not measured here", "conditions": "women compared with men"}
{"smiles": "Cc1[nH]cnc1CN1CCc2c(c3ccccc3n2C)C1=O", "note": "[alosetron, 5-methyl-2-((5-methyl-1H-imidazol-4-yl)methyl)-2,3,4,5-tetrahydro-1H-pyrido[4,3-b]indol-1-one]", "values": [{"measurement": "alosetron clearance lower in women than in men", "result": 30, "unit": "%"}]}
